ChEMBL document CHEMBL1139792, “Correlation of carboxylic acid pKa to protein binding and antibacterial activity of a novel class of bacterial translation inhibitors” (Bioorg Med Chem Lett, 2007)
In brackets after ≈: the same amount, converted by molar mass. Activity calls are given as the source filed them. The calls are words filed in the database; no cut-off is given here.

What was measured:
Staphylococcus aureus [1] = assay: Antibacterial activity against Staphylococcus aureus UC9218 in presence of 10% human serum; assay type: functional
Staphylococcus aureus [2] = assay: Antibacterial activity against Staphylococcus aureus UC9218; assay type: functional
Albumin [3] = molecular target: T1, Albumin (Homo sapiens, UniProt P02768); assay: Displacement of fluorescent dansyl sarcosine from human serum albumin site II on subdomain IIIA
Staphylococcus aureus [4] = assay: Antibacterial activity against Staphylococcus aureus UC9218 in presence of 5% human serum; assay type: functional
[5] = Acid dissociation constant, pKa by pressure-assisted capillary electrophoresis method; assay type: physicochemical
Albumin [6] = molecular target: T1, Albumin; assay: Binding to high affinity site of human serum albumin; assay type: ADME
Staphylococcus aureus [7] = assay: Antibacterial activity against Staphylococcus aureus in mouse bacteremia model; assay type: functional

T1 sequence (P02768 whole entry): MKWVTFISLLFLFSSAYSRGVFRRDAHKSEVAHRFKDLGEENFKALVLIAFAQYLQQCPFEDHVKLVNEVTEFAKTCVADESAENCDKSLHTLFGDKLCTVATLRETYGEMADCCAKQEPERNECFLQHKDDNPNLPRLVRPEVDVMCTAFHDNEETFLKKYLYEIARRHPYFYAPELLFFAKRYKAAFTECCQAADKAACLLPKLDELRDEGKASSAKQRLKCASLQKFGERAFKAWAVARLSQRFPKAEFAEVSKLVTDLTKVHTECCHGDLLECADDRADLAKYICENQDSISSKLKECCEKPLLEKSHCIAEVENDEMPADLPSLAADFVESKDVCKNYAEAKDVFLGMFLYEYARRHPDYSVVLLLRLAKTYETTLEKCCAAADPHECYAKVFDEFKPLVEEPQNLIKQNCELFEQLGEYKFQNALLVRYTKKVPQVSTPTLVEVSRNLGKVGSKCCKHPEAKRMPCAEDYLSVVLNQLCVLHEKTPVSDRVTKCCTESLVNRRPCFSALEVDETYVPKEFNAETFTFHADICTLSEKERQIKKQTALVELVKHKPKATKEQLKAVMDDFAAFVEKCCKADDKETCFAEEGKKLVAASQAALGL

SMILES	MIC (Staphylococcus aureus [1])	MIC (Staphylococcus aureus [2])	Kd (Albumin [3])	MIC (Staphylococcus aureus [4])	pKa [5]	Kd (Albumin [6])	ED50 (Staphylococcus aureus [7])	Activity (Staphylococcus aureus [7])
CCCN(CCC)S(=O)(=O)c1ccc(C(=O)Nc2cc3ccccc3cc2C(=O)O)cc1	> 64 µg/mL	32 µg/mL (≈ 70.4 µM)	–	–	–	–	–	–
Cc1ccc(NC(=O)c2cccc(S(=O)(=O)N3CCOCC3)c2)c(C(=O)O)c1	–	> 128 µg/mL	7.5 µM	> 128 µg/mL	3.36	–	–	–
N#Cc1ccc(NC(=O)c2cc(SCc3ccccc3)on2)c(C(=O)O)c1	4 µg/mL	0.125 µg/mL (≈ 0.329 µM)	–	–	–	–	–	–
N#Cc1ccc(NC(=O)c2ccc(S(=O)(=O)N3CCOCC3)cc2)c(C(=O)O)c1	4 µg/mL	1 µg/mL (≈ 2.41 µM)	5.3 µM	2 µg/mL	2.56	14 µM	> 200 mg/kg	–
O=C(Nc1ccc(Br)cc1C(=O)O)c1cccc(S(=O)(=O)N2CCOCC2)c1	–	4 µg/mL (≈ 8.52 µM)	4.8 µM	32 µg/mL	2.79	–	–	–
O=C(Nc1ccccc1C(=O)O)c1cccc(S(=O)(=O)N2CCOCC2)c1	–	> 128 µg/mL	6 µM	> 128 µg/mL	3.18	–	–	–
O=C(Nc1ccc(Br)cc1C(=O)O)c1ccc(S(=O)(=O)N2CCc3cc(Cl)ccc32)cc1	64 µg/mL	0.125 µg/mL (≈ 0.233 µM)	–	–	–	–	–	–
N#Cc1ccc(NC(=O)c2ccc(S(=O)(=O)N3CCCC3)cc2)c(C(=O)O)c1	8 µg/mL	1 µg/mL (≈ 2.5 µM)	–	–	–	–	–	inactive
O=C(Nc1ccc(F)cc1C(=O)O)c1cccc(S(=O)(=O)N2CCOCC2)c1	–	128 µg/mL (≈ 313 µM)	6.6 µM	128 µg/mL	2.92	–	–	–
O=C(Nc1ccc([N+](=O)[O-])cc1C(=O)O)c1cccc(S(=O)(=O)N2CCOCC2)c1	–	4 µg/mL (≈ 9.19 µM)	4.4 µM	16 µg/mL	3.44	–	–	–
N#Cc1ccc(NC(=O)c2ccc(S(=O)(=O)N3CCc4cc(Cl)ccc43)cc2)c(C(=O)O)c1	8 µg/mL	0.125 µg/mL (≈ 0.259 µM)	–	–	–	–	–	inactive
O=C(Nc1ccc(Cl)cc1C(=O)O)c1cccc(S(=O)(=O)N2CCOCC2)c1	–	4 µg/mL (≈ 9.41 µM)	6.5 µM	32 µg/mL	2.81	–	–	–
COc1ccc(NC(=O)c2cccc(S(=O)(=O)N3CCOCC3)c2)c(C(=O)O)c1	–	> 128 µg/mL	8.1 µM	> 128 µg/mL	3.12	–	–	–
